Measurements: patent publication US20090298891A1, “Methods of Treating or Preventing Cancer Using Pyridine Carboxaldehyde Pyridine Thiosemicarbazone Radiosensitizing Agents” (GOVERNMENT OF THE US, AS REPRESENTED BY THE SECRETADY OF …, priority 2005, published 2009)

Columns and labels:
[1] = tested on: U251 (human glioma) cell line; assay: Clonogenic assay, U251; type: cell-based
Description: (§1) Cell lines and treatment. Three human tumor cell lines were evaluated: a glioma (U251), a pancreatic carcinoma (PSN1) and a prostate carcinoma (DU145), each was obtained from the Developmental Therapeutics Program, DCTD, NCI. The cell lines were grown in RPMI 1640 (Life Technologies, Rockville, Md.) containing […] (5 mM) and 5% FBS and maintained at 37° C. in an atmosphere of 5% CO2 and 95% room air. Triapine (3-amino-2-carboxaldehyde-pyridine thiosemicarbazone), provided by Vion Pharmaceuticals of New Haven, Conn., was dissolved in dimethylsulfoxide to a stock concentration of 10 mM and stored at −20° C. Cultures were irradiated using a Pantak (Solon, Ohio) X-ray source at a dose rate of 1.55 Gy/minute.
(§2) Clonogenic assay. Cell cultures were trypsinized to generate a single cell suspension and a specified number of cells were seeded into each well of 6-well tissue culture plates. In the first experiment, drug or vehicle control was, added at specified concentrations, and the plates were irradiated 16 hours later. Immediately after irradiation, the growth media was aspirated, and fresh media was added. In the second experiment, cells were seeded, and irradiated 6 hours after seeding. Immediately after irradiation, the cells were treated with the specified concentration of drug. After 16 hours of exposure, drug was aspirated, and replaced with fresh media. Ten to twelve days after seeding, colonies were stained with crystal violet, and the number of colonies containing at least 50 cells was determined and the surviving fractions were calculated. Survival curves were generated after normalizing for the cytotoxicity generated by drug alone. Data presented are the mean±SEM from at least three independent experiments. Radiation dose enhancement factors (DEFs) represent the ratio of radiation dose required to achieve 10% survival in the control cells and the drug-treated cells.

[2] = tested on: U251 tumors; assay: In vivo tumor growth delay assay, U251 xenografts; set-up: species or system mice; conditions: combination of Triapine and radiation
Description: In Vivo Tumor Growth Delay Assay. Male 6 week old athymic nude mice (NCr nu/nu) were used in these studies. Mice, housed in filter-topped cages, were provided autoclaved feed and hyperchlorinated water ad libitum. U251 or PSN1 tumor cells were implanted subcutaneously in the hind leg. Irradiation was performed using a Pantak (Solon, Ohio) irradiator with animals restrained in a custom lead jig, which allowed for the localized irradiation of tumors at the base of the tail. When tumors reached 177 mm^3 (7×7 mm) Triapine (30-60 mg/kg) was delivered by intraperitoneal injection and 6 h later tumors were irradiated with a single dose of 4 or 5 Gy. To obtain growth curves, perpendicular diameter measurements of each tumor were collected every 3 days with calipers, and the volumes were calculated using the formula (L×W×W)/2. Tumors were followed until the group's tumors were greater than 1500 mm^3. Specific tumor growth delay was calculated as the number of days for the treated tumors to grow to 1400 mm^3 minus the number of days for the control group to reach the same size. […]
In vivo activity of Triapine in conjunction with radiation was determined through growth delays in mice with subcutaneous human tumor xenografts. Based on the above described in vitro results, xenografts of PSN1 and U251 were evaluated in vivo. […]

[3] = tested on: U251 cells; assay: Cell cycle phase analysis (flow cytometry); type: cell-based, human; conditions: 16 hours of Triapine exposure (5 μM)
Description: Cell Cycle Phase Analysis. Cell cycle phase distribution was analyzed using flow cytometry. Cells were seeded in T75 flasks at subconfluent density and exposed to Triapine, or vehicle for 16 hours, at which time cells were fixated and stained with propidium iodide for flow cytometry analysis at the Clinical Services Program at the National Cancer Institute-Frederick. A two-tailed, paired t-test was performed on the data from the replicated analysis.

[4] = tested on: DNA synthesis activity in U251 cells; assay: DNA synthesis assay (BrdU incorporation); type: cell-based, human; conditions: after 16 hours of Triapine exposure
Description: DNA Synthesis Assay. DNA synthesis was quantified as an indirect measure of ribonucleotide reductase activity. A 5-bromo-2′-deoxyuridine (BrdU) incorporation assay kit (#1669915) produced by Roche Applied Science (Mannheim, Germany) was used. Cells were seeded in wells of a black wall 96-well plate and allowed to incubate for 24 hours. Drug was added, and after 16 hours of exposure, 10 μM BrdU pulses were added hourly for 2 hours, according to manufacturer's instructions. After fixation, an anti-BrdU peroxidase antibody conjugate was applied for 90 minutes at room temperature. The conjugate was then rinsed three times, and luminol was added. Chemiluminescence was detected with a Wallac 1420 multilabel counter (Perkin Elmer Life Sciences, Turku, Finland), and data was exported for off-line analysis. Triplicate samples were run for three independent experiments; data is presented as the mean of three experiments±SEM.

[5] = tested on: PSN1 (pancreatic carcinoma) cell line; assay: Clonogenic assay, PSN1; type: cell-based, human
Description: as §1, §2

[6] = tested on: DU145 (prostate carcinoma) cell line; assay: Clonogenic assay, DU145; type: cell-based, human
Description: as §1, §2

[7] = tested on: PSN1 tumors; assay: In vivo tumor growth delay assay, PSN1 xenografts; set-up: species or system mice
Description: In Vivo Tumor Growth Delay Assay. Male 6 week old athymic nude mice (NCr nu/nu) were used in these studies. Mice, housed in filter-topped cages, were provided autoclaved feed and hyperchlorinated water ad libitum. U251 or PSN1 tumor cells were implanted subcutaneously in the hind leg. Irradiation was performed using a Pantak (Solon, Ohio) irradiator with animals restrained in a custom lead jig, which allowed for the localized irradiation of tumors at the base of the tail. When tumors reached 177 mm^3 (7×7 mm) Triapine (30-60 mg/kg) was delivered by intraperitoneal injection and 6 h later tumors were irradiated with a single dose of 4 or 5 Gy. To obtain growth curves, perpendicular diameter measurements of each tumor were collected every 3 days with calipers, and the volumes were calculated using the formula (L×W×W)/2. Tumors were followed until the group's tumors were greater than 1500 mm^3. Specific tumor growth delay was calculated as the number of days for the treated tumors to grow to 1400 mm^3 minus the number of days for the control group to reach the same size. Each experimental group contained 10 mice and the untreated group contained 15 mice. All animal studies were conducted in accordance with the principles and procedures outlined in the U.S.P.H.S. Guide for the Care and Use of Laboratory Animals in an AAALAC-approved facility under an approved animal protocol.
In vivo activity of Triapine in conjunction with radiation was determined through growth delays in mice with subcutaneous human tumor xenografts. Based on the above described in vitro results, xenografts of PSN1 and U251 were evaluated in vivo. Triapine (40 mg/kg) was given 6 hours prior to a single radiation dose (4 or 5 Gy). After 3 volumetric doublings of the PSN1 tumors, Triapine alone yielded a 1.6 day growth delay, and radiation caused a 9.8 day growth delay. […] See, FIG. 8 (U251) and FIG. 9 (PSN1) for a graph of tumor growth delay data.

For NC(=S)N/N=C/c1ncccc1N [Triapine, 3-amino-2-carboxaldehyde-pyridine thiosemicarbazone], the “Survival following 16 hours of Triapine exposure” value (from here on “Survival following 16 hours”) ([1]; U251, 5 μM, drug alone) was 53%, the “radiosensitization / DEF, Triapine after irradiation” value (from here on “radiosensitization / DEF, Triapine”) ([1]; U251, Triapine for 16 hours after irradiation) was “DEFs similar to those obtained when cells were exposed prior to irradiation” and the “dose enhancement factor (DEF)” value ([1]; U251, Triapine given prior to radiation, ratio of radiation dose for 10% survival) was 1.50. For the same molecule, the “growth delay / DEF effect of combination” value [2] was “a similar effect was observed”, the “percentage of cells in G1” value [3] was “increased” and the “percentage of cells in G2/M” value [3] was “decreased”. The DNA synthesis [4] was “less than 5 % of control”, the “time for DNA synthesis to return to control levels” value [4] was 7 h and the “Survival following 16 hours” value ([5]; PSN1, 3 μM, drug alone) was 33%. The “radiosensitization / DEF, Triapine” value ([5]; PSN1, Triapine for 16 hours after irradiation) was “DEFs similar to those obtained when cells were exposed prior to irradiation”, the “dose enhancement factor (DEF)” value ([5]; PSN1, Triapine given prior to radiation, ratio of radiation dose for 10% survival) was 1.64 and the “Survival following 16 hours” value ([6]; DU145, 5 μM, drug alone) was 68%. The “radiosensitization / DEF, Triapine” value ([6]; DU145, Triapine for 16 hours after irradiation) was “DEFs similar to those obtained when cells were exposed prior to irradiation”, the “dose enhancement factor (DEF)” value ([6]; DU145, Triapine given prior to radiation, ratio of radiation dose for 10% survival) was 2.05 and the growth delay ([7]; Triapine alone, 40 mg/kg intraperitoneal, after 3 volumetric doublings of PSN1 tumors) was 1.6 days. The growth delay ([7]; combination of Triapine (40 mg/kg, 6 hours prior) and single radiation dose (4 or 5 Gy), PSN1 tumors) was 20.9 days and the “DEF (in vivo)” value ([7]; combination of Triapine and radiation, PSN1 tumors) was 2.0.
